According to patent publication US9801851B2, “Methods and compositions for the treatment of BCR-ABL positive lymphoblastic leukemias” (ST. JUDE CHILDREN'S RESEARCH HOSPITAL, priority 2012, dated 2017):
Like-named read-outs stand apart in the source and are kept apart here.

Assays:
[1] = test system: human Ph+ ALL SUPB15 cells; experiment: Cell viability, MTS assay, 72 h; format: cell-based
Procedure: Drug delivery to cell suspensions was accomplished with a V & P Scientific (San Diego, Calif.) pin. For murine-human comparisons, human SUP-B15 Ph+ ALL cells (DSMZ cell culture collection, Germany) in McCoy's media containing 20% fetal calf serum and penicillin/streptomycin (Invitrogen, Carlsbad, Calif.), were plated at 12,500 cells in 25 μL per well in black clear-bottom 384-well microtiter plates. Drugs were transferred by pin-transfer. After 72 h incubation at 37° C., 20% (by volume) MTS assay reagent (CellTiter 96 Aqueous One Solution, Promega, Madison, Wis.) was added, microtiter plates were incubated for 75 min at 37° C., and read colorimetrically at 490 nm.

Arf−/− BCR-ABL^WT LICs [2] = format: in vivo
[3] = In vivo toxicity studies of DHA by oral gavage; settings: repeated single doses of 300 mg/kg, 5 days/week
Procedure: In toxicity studies, DHA was ranged up to 300 mg/kg as a single or split dose for 5 days/week over a six week time period. […] During therapeutic studies, animal weights were monitored daily to ensure no significant body weight reductions.

Arf−/− BCR-ABL^WT LICs [4] = experiment: LIC growth inhibition, CellTiter-Glo (CTG) assay, 72 h; format: cell-based, murine; settings: for effect of cytokine on dasatinib potency: 72-h dasatinib exposure in presence of increasing concentrations of cytokine
Text: Replication-defective mouse stem cell virus (MSCV) retroviral vectors co-expressing either the wild-type (WT) allele of human p185^BCR-ABL or mutant BCR-ABL alleles p185^T315I or p185^F317L, and either green fluorescent protein (GFP) or luciferase, were packaged into replication-incompetent ecotropic virions. Whole bone marrow cell suspensions from Arf^−/− young adult mice were infected to produce Arf^−/− p185+ pre-B cells. […] Prior to use in any assays, Arf^−/− p185^WT and Arf^−/− p185^T315I pre-B cells (BCR-ABL^WT leukemia initiating cells (LICs) and BCR-ABL^T315I LICs, respectively) were thawed and allowed to recover in BCM10 for 3 days.
The maximum dimethyl sulfoxide (DMSO) concentration tolerated by LICs in culture was determined to be 0.2% (by volume) and was maintained at ≦0.1% (by volume) in all subsequent work. […] Both cell types were plated at multiple cell dilutions (n=3 for each condition, time=0 h) in 6-well plates and serially followed daily for 5 days to evaluate absolute viable cell count, total viability, doubling times, and total population doublings, using the Beckman Coulter cell counter (trypan blue staining) and fluorescence-activated cell sorting (FACS) analysis in parallel. […] FACS cell-cycle analysis confirmed that a population doubling time less than 14 h was sufficient to maintain cells in exponential growth (>50% cells in S-phase).
After a 72 h drug challenge, LIC growth was measured by the 3 cellular readouts: CellTiter-Glo® (CTG) assay (ATP content), MTS (3-(4,5-dimethylthiazol-2-yl)-5-(3-carboxymethoxyphenyl)-2-(4-sulfophenyl)-2H-tetrazolium) assay (viability), and high-throughput flow cytometry (total viability and viable cell counts by DAPI exclusion). Measured assay readouts at various drug concentrations (x-axis) were normalized to DMSO-treated LICs and graphed (+/−sd) on y-axis.

For C[C@@H]1CCC2[C@@H](C)[C@@H](O)O[C@@H]3OC4(C)CC[C@@H]1[C@@]23OO4 (some centres unmarked) [DHA, dihydroartemisinin], the “killing of human Ph+ ALL cell line” value [1] was “actively kill”, the “efficacy alone in high-burden leukemia model” value (Arf−/− BCR-ABL^WT LICs [2]; 200 mg/kg) was “completely ineffective” and the “efficacy alone in high-burden leukemia model” value (Arf−/− BCR-ABL^WT LICs [2]; 300 mg/kg) was “poorly effective”. The “survival benefit, monotherapy” value (Arf−/− BCR-ABL^WT LICs [2]; IL7+/+ host mice, low-burden 2×10^3 LICs, 100, 200, 300 mg/kg once daily 5 days/week from day 3) was “dose-dependent survival benefit” and the toxicity findings [3] was “no significant weight loss, lethargy, seizures or deaths”.

With TGF-β the “effect of cytokine on dasatinib potency” value (Arf−/− BCR-ABL^WT LICs [4]) was “enhance dasatinib activity”.

With C[C@H]1[C@H](OC(=O)CCC(=O)O)O[C@@H]2O[C@@]3(C)CC[C@H]4[C@H](C)CC[C@@H]1[C@@]24OO3 [artesunate] the “killing of human Ph+ ALL cell line” value [1] was “actively kill”.

For C[C@@H]1CC[C@H]2[C@@H](C)C(=O)O[C@@H]3O[C@@]4(C)CC[C@@H]1[C@]32OO4 [artemisinin], the anti-LIC potency (Arf−/− BCR-ABL^WT LICs [4]; BCR-ABL^WT and BCR-ABL^T315I LICs, 72 h, absence or presence of 1 ng/mL murine IL7) was “lower than that of artesunate or DHA”.

With “IL4: recombinant murine hematopoietic cytokine” the “effect of cytokine on dasatinib potency” value (Arf−/− BCR-ABL^WT LICs [4]) was “confer some resistance”.

In the case of “TSLP: thymic stromal lymphopoietin, IL7-like cytokine”, the “effect of cytokine on dasatinib potency” value (Arf−/− BCR-ABL^WT LICs [4]) is reported as “confer some resistance”.

B1: IL7: recombinant murine cytokine, leukemia-microenvironment host factor (protein, UniProt P10168 26-154, looked up)
Interleukin-7: ECHIKDKEGKAYESVLMISIDELDKMTGTDSNCPNNEPNFFRKHVCDDTKEAAFLNRAARKLKQFLKMNISEEFNVHLLTVSQGTQTLVNCTSKEEKNVKEQKKNDACFLKRLLREIKTCWNKILKGSI
For B1, the “effect of cytokine on dasatinib potency” value (Arf−/− BCR-ABL^WT LICs [4]) was “strongest protection against dasatinib”.
